Tests used:
[1] = system: FXN-GAA-Luc; assay: Luciferase reporter assay, FXN-GAA-Luc line (~310 GAA repeats); assay type: cell-based; details: 24 hours, 2 μM unless otherwise indicated (Agent 4 at 1 or 2)
Description: This reporter, which includes a ˜310 GAA repeat, recapitulates both the transcriptional repression and the heterochromatin formation at the endogenous FXN locus that are hallmarks of the FRDA disease.
Cells containing FXN-Luc or FXN-GAA-Luc were seeded onto 24-well plates at a confluency of 20%. The next day, media was refreshed and cells were treated 24 hours with the indicated compound at the indicated concentration. Next, cell lysates were harvested and analyzed with the Luciferase Assay System (Promega, Madison, Wis.) per manufacturer's directions on a Synergy H4 Hybrid Reader (BioTek, Winooski, Vt.).

[2] = system: frataxin (FXN) mRNA; assay: FXN mRNA by RT-PCR (relative to TBP) in FRDA patient cell line GM15850; assay type: cell-based, human; details: GM15850, 1 μM, 24 hours
Description: Cells were maintained in RPMI 1640 supplemented with 2 mM L-glutamine and 15% fetal bovine serum (FBS) at 37° C. in a humidified atmosphere of 5% CO2. Cell density was maintained between 200,000 cells/mL and 1,000,000 cells/mL. Cell growth and morphology were monitored by phase contrast microscopy and cell viability by trypan blue exclusion. To maintain cell density, cells were passaged by centrifuging at 500 g for 3 minutes and resuspending the cells in fresh media. To avoid cross-contamination, cells were handled separately with separate bottles of media. Relevant data were obtained from cell lines passaged between P9 and P12.
To prepare agents for treatment of cells, each agent or agent mixture tested was dissolved in DMSO. […] 500,000 cells ells were seeded at 500,000 cells/mL and treated 24 h with agents in DMSO (0.1-0.2% DMSO final concentration). For the 24 hour treatment, cell media was changed immediately before treatment with agent and agent was added at the zero time point. The media was not changed during the 24 hour treatment time period.
After treatment with the agents or agent mixtures, cells were harvested and total RNA was purified with the RNeasy Mini Kit (Qiagen, Valencia, Calif.), including on-column DNase I treatment (ZYMO Research, Catalog number E1010), according to manufacturer's directions. […]

[3] = system: FXN protein; assay: Immunoblot for FXN protein in GM15850 cells; assay type: cell-based, human; details: GM15850, 24 hours, 1 μM (Agent 4: 0.1, 0.5 or 1 μM)
Description: (§1) In FIG. 3A, “50” refers to GM15850 cells and in FIG. 3B, “51” refers to GM15851 cells. Cells were treated as in Example 4.
(§2) Total cell extracts from cell lines were used for immunoblot analysis. Antibodies to frataxin (abcam ab110328, 1:250 dilution) or alpha-Tubulin (Cell Signaling Technologies 2144, 1:1000 dilution) were used. Signal was detected by chemiluminescence with HRP-conjugated secondary antibodies (Bio-Rad 172-1011, 1:2000 for anti-mouse frataxin and GE NA934V, 1:2000 for anti-rabbit alpha-Tubulin).

[4] = system: FXN protein; assay: Immunoblot for FXN protein in GM15851 cells; assay type: cell-based, human; details: GM15851, 24 hours, 1 μM (Agent 4: 0.1, 0.5 or 1 μM)
Description: as §1, §2

| Structure (SMILES) | luciferase activity [1] | increase in FXN mRNA levels [2] | FXN protein (immunoblot) [3] | FXN protein (immunoblot) [4] |
| --- | --- | --- | --- | --- |
| Cc1sc2c(c1C)C(c1ccc(Cl)cc1)=N[C@@H](CC(=O)OC(C)(C)C)c1nnc(C)n1-2 [JQ1] | Significant activation was not observed | no increase | Neither polyamide alone (3), nor JQ1, nor the unconjugated treatment induced increased production of FXN protein |  |
| Cc1sc2c(c1C)C(c1ccc(Cl)cc1)=N[C@@H](CC(=O)NCCOCCOCCOCCOCCOCCOCCC(=O)NCCCN(C)CCCNC(=O)CCNC(=O)c1cc(NC(=O)c3cc(NC(=O)c4nc(NC(=O)c5cc(NC(=O)CCCNC(=O)c6nc(NC(=O)c7cc(NC(=O)c8cc(NC(=O)c9sccc9Cl)cn8C)cn7C)cn6C)cn5C)cn4C)cn3C)cn1C)c1nnc(C)n1-2 [Control Conjugate 2] |  | no increase |  | increase in FXN protein |
